Experimental data reported in paper PMC8397297 (ACS Chemical Neuroscience, 2021).

What was measured:
[1] = target: T1, mGAT1 (Mus musculus, UniProt P31648); test: [3H]GABA uptake assay in HEK-293 cells stably expressing mGAT1; assay type: cell-based; details: for IC50: [3H]GABA uptake, read-out: pIC50 ± SEM mGAT1 (converted); for remaining [3H]GABA uptake mGAT1: in the presence of 100 μM inhibitor
T1 construct: expressed in transfected cells; host or cells: HEK-293

[2] = target: T2, mGAT2 (Mus musculus, UniProt P31651); test: [3H]GABA uptake assay in HEK-293 cells stably expressing mGAT2; assay type: cell-based; details: for IC50: [3H]GABA uptake, read-out: pIC50 ± SEM mGAT2 (converted); for remaining [3H]GABA uptake mGAT2: in the presence of 100 μM inhibitor
T2 construct: expressed in transfected cells; host or cells: HEK-293
T2 sequence (P31651 1-614): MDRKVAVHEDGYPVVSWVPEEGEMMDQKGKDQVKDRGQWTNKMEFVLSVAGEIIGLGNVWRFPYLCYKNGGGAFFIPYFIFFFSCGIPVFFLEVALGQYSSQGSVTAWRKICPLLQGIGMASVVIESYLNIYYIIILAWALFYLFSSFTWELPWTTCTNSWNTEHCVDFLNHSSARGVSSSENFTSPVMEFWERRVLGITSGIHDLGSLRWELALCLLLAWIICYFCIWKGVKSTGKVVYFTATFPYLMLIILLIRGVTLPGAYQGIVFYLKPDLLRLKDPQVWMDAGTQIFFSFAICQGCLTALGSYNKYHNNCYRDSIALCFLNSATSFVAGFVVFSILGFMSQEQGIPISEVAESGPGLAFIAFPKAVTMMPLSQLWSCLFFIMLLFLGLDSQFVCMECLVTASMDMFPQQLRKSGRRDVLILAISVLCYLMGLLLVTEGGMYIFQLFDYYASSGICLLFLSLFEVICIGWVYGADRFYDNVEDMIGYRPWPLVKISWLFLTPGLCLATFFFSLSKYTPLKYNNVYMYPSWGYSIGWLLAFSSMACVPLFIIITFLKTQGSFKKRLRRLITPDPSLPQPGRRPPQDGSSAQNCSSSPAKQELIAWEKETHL

[3] = target: T3, mGAT3 (Mus musculus, UniProt P31649); test: [3H]GABA uptake assay in HEK-293 cells stably expressing mGAT3; assay type: cell-based; details: [3H]GABA uptake; read-out: pIC50 ± SEM mGAT3 (converted)
T3 construct: expressed in transfected cells; host or cells: HEK-293
T3 sequence (P31649 1-602): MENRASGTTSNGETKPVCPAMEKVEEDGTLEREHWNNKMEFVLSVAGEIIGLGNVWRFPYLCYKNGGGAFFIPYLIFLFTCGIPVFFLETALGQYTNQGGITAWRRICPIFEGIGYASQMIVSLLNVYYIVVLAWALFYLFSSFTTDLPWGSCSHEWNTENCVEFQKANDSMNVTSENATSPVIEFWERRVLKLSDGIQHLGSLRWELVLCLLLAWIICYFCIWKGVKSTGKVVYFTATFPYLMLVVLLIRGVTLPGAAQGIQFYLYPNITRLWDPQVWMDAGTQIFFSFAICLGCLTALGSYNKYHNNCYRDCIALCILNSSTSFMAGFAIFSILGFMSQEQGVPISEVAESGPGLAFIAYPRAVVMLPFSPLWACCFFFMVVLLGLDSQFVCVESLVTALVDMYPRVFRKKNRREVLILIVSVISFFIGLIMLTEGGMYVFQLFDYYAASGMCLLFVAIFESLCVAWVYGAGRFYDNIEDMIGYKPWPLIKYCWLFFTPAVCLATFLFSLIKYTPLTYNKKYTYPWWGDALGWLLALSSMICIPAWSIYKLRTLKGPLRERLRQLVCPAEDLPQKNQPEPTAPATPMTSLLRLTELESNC

[4] = target: T4, mGAT4 (Mus musculus, UniProt P31650); test: [3H]GABA uptake assay in HEK-293 cells stably expressing mGAT4; assay type: cell-based; details: for IC50: [3H]GABA uptake, read-out: pIC50 ± SEM mGAT4 (converted); for remaining [3H]GABA uptake mGAT4: in the presence of 100 μM inhibitor
T4 construct: expressed in transfected cells; host or cells: HEK-293
T4 sequence (P31650 1-627): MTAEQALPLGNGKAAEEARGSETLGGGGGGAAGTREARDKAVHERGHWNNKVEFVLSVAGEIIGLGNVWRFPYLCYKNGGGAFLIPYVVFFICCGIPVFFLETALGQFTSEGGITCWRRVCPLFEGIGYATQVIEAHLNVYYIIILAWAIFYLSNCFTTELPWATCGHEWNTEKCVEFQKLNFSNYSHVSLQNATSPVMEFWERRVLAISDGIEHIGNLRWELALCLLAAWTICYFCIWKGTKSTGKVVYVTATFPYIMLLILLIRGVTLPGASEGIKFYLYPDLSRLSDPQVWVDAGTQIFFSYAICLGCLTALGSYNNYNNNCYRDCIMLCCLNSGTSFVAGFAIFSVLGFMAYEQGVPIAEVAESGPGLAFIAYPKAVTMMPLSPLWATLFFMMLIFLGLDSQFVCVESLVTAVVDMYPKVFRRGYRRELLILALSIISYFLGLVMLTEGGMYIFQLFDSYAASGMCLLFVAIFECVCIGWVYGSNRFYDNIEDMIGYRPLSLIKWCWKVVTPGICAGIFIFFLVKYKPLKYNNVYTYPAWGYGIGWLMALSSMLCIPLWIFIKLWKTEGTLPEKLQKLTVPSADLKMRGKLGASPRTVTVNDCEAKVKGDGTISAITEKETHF

[5] = target: T1, mGAT1; test: competitive MS binding assay with NO711 as unlabeled marker (LC-ESI-MS/MS); details: in the presence of 100 μM inhibitor
Description: Specific binding affinity toward mGAT1 was determined via a competitive mass spectrometry (MS) binding assay quantified by liquid chromatography–electrospray ionization tandem mass spectrometry (LC–ESI-MS/MS) with NO711 as an unlabeled marker.[50]
MS binding assays for mGAT1 were performed as described earlier.[50] Inhibition of mGAT1 binding by the synthesized compounds was determined in MS binding assays at a screening concentration of 100 μM and analyzed by LC–ESI-MS/MS.

Compound | IC50 [1] [µM] | IC50 [2] [µM] | IC50 [3] [µM] | IC50 [4] [µM] | remaining NO711 binding mGAT1 [5] | remaining [3H]GABA uptake mGAT1 [1] | remaining [3H]GABA uptake mGAT2 [2] | remaining [3H]GABA uptake mGAT4 [4]
Cc1ccsc1C(=C1CCN([C@H](C[C@@H](C)O)C(=O)NCc2ccccc2)CC1)c1sccc1C (relative stereo) [2RS,4RS-37a, N-Benzyl-2-{4-[bis(3-methylthiophen-2-yl)methylidene]piperidin-1-yl}-4-hydroxypentanamide] | 26.3 | 24.5 | 41.7 | 72.4 | 100 μM: 74% | – | – | –
Cc1ccsc1C(=C1CCN([C@H](C[C@@H](C)O)C(=O)NCc2ccc(F)cc2)CC1)c1sccc1C (relative stereo) [2RS,4RS-37c, 2-{4-[Bis(3-methylthiophen-2-yl)methylidene]piperidin-1-yl}-N-[(4-fluorophenyl)methyl]-4-hydroxypentanamide] | 17.8 | 15.8 | 11.5 | 19.5 | 100 μM: 76% | – | – | –
C[C@@H](O)C[C@H](C(=O)NCc1ccc(Cl)cc1)N(C)CCC=C1c2ccccc2CCc2ccccc21 (relative stereo) [2RS,4RS-39b, N-(4-Chlorobenzyl)-2-((3-(10,11-dihydro-5H-dibenzo[a,d][7]annulen-5-ylidene)propyl)(methyl)amino)-4-hydroxypentanamide] | – | – | 24 | 9.12 | 100 μM: 84% | 100 μM: 56% | 100 μM: 73% | –
Cc1ccsc1C(=C1CCN(C(CC(C)O)C(=O)NCc2ccccc2Cl)CC1)c1sccc1C (centres unmarked) [2RS,4RS-37b, 2-{4-[Bis(3-methylthiophen-2-yl)methylidene]piperidin-1-yl}-N-[(2-chlorophenyl)methyl]-4-hydroxypentanamide] | – | – | 93.3 | 61.7 | 100 μM: 94% | 100 μM: 52% | 100 μM: 58% | –
CC(O)CC(C(=O)NCc1ccc(F)cc1)N(C)CCC=C1c2ccccc2CCc2ccccc21 (centres unmarked) [2RS,4RS-39a, 2-((3-(10,11-Dihydro-5H-dibenzo[a,d][7]annulen-5-ylidene)propyl)(methyl)amino)-N-(4-fluorobenzyl)-4-hydroxypentanamide] | – | 12.6 | 14.8 | 25.1 | 100 μM: 110% | 100 μM: 51% | – | –
CC(O)CC(C(=O)NCc1ccccc1)N1CCC(=C2c3ccccc3-c3ccccc32)CC1 (centres unmarked) [2RS,4RS-41a, N-Benzyl-2-[4-(9H-fluoren-9-ylidene)piperidin-1-yl]-4-hydroxypentanamide] | – | 74.1 | 64.6 | – | 100 μM: 92% | 100 μM: 49% | – | 52%
CC(O)CC(C(=O)NCc1ccccc1)N1CCC(=C2c3ccccc3CCc3ccccc32)CC1 (centres unmarked) [2RS,4RS-43a, N-Benzyl-2-(4-(10,11-dihydro-5H-dibenzo[a,d][7]annulen-5-ylidene)piperidin-1-yl)-4-hydroxypentanamide] | 17 | 56.2 | 21.4 | 26.3 | 100 μM: 77% | – | – | –
CC(O)CC(C(=O)NCc1ccc(F)cc1)N1CCC(=C2c3ccccc3CCc3ccccc32)CC1 (centres unmarked) [2RS,4RS-43b, 2-(4-(10,11-Dihydro-5H-dibenzo[a,d][7]annulen-5-ylidene)piperidin-1-yl)-N-(4-fluorobenzyl)-4-hydroxypentanamide] | 70.8 | – | 38 | 47.9 | 100 μM: 86% | – | 100 μM: 59% | –
CC(O)CC(C(=O)NCc1ccccc1)N(C)CCON=C(c1ccccc1)c1ccccc1 (centres unmarked) [2RS,4RS-45, N-Benzyl-2-[(2-{[(diphenylmethylidene)amino]oxy}ethyl)(methyl)amino]-4-hydroxypentanamide] | 43.7 ± 0.801 | 45.7 | 20 | 28.2 | 100 μM: 100% | – | – | –

Other lines, results leading:

IC50 [1] [µM] | IC50 [2] [µM] | IC50 [3] [µM] | IC50 [4] [µM] | remaining NO711 binding mGAT1 [5] | remaining [3H]GABA uptake mGAT1 [1] | remaining [3H]GABA uptake mGAT2 [2] | remaining [3H]GABA uptake mGAT4 [4] | Compound
29.5 | – | 61.7 | 27.5 | 100 μM: 78% | – | 100 μM: 60% | – | Cc1ccsc1C(=C1CCN([C@H](C[C@H](C)O)C(=O)NCc2ccccc2)CC1)c1sccc1C (relative stereo) [2RS,4SR-37a, N-Benzyl-2-{4-[bis(3-methylthiophen-2-yl)methylidene]piperidin-1-yl}-4-hydroxypentanamide]
– | – | 10.2 | 9.12 | 100 μM: 87% | 100 μM: 51% | 100 μM: 73% | – | C[C@H](O)C[C@H](C(=O)NCc1ccc(Cl)cc1)N(C)CCC=C1c2ccccc2CCc2ccccc21 (relative stereo) [2RS,4SR-39b, N-(4-Chlorobenzyl)-2-((3-(10,11-dihydro-5H-dibenzo[a,d][7]annulen-5-ylidene)propyl)(methyl)amino)-4-hydroxypentanamide]
– | 8.13 | 7.94 | 6.92 | 100 μM: 73% | 100 μM: 51% | – | – | Cc1ccc(CNC(=O)[C@@H](C[C@H](C)O)N(C)CCC=C2c3ccccc3CCc3ccccc32)cc1 (relative stereo) [2RS,4SR-39c, 2-((3-(10,11-Dihydro-5H-dibenzo[a,d][7]annulen-5-ylidene)propyl)(methyl)amino)-4-hydroxy-N-(4-methylbenzyl)pentanamide]
– | – | 72.4 | – | 100 μM: 108% | 100 μM: 50% | 100 μM: 69% | 100 μM: 56% | Cc1ccsc1C(=C1CCN(C(CC(C)O)C(=O)NCc2ccccc2Cl)CC1)c1sccc1C (centres unmarked) [2RS,4SR-37b, 2-{4-[Bis(3-methylthiophen-2-yl)methylidene]piperidin-1-yl}-N-[(2-chlorophenyl)methyl]-4-hydroxypentanamide]
85.1 | 89.1 | 55 | 72.4 | 100 μM: 89% | – | – | – | CC(O)CC(C(=O)NCc1ccccc1)N1CCC(=C2c3ccccc3-c3ccccc32)CC1 (centres unmarked) [2RS,4SR-41a, N-Benzyl-2-[4-(9H-fluoren-9-ylidene)piperidin-1-yl]-4-hydroxypentanamide]
18.6 | 28.8 | 20.4 | 11.2 | – | – | – | – | Cc1ccc(CNC(=O)C(CO)N(C)CCC=C2c3ccccc3CCc3ccccc32)cc1 (centres unmarked) [Compound 56e, 2-((3-(10,11-Dihydro-5H-dibenzo[a,d][7]annulen-5-ylidene)propyl)(methyl)amino)-3-hydroxy-N-(4-methylbenzyl)propanamide]
